The values below come from paper PMC5769330, “Flaxseed-enriched diets change milk concentration of the antimicrobial danofloxacin in sheep” (BMC Veterinary Research, 2018).

Counter-ions that a name gives are not always drawn. Like-named read-outs stand apart in the source and are kept apart here.

Data set [1] in a line: Enterolignans and conjugates in plasma and milk of sheep fed flaxseed-enriched diets (UPLC-QTOF-MS). The note with it: qualitative. The class given is in vivo. On the procedure:
Eighteen lactating […] (3-4 months in lactation and weighing 66-105 kg) were used and milked twice daily. The animals were parasite-free, and drinking water was available ad libitum. The experimental design was performed with animals stratified according to milk production and number of days post-partum, and then randomly distributed in the experimental groups. The animals were divided into 3 diet groups of 6 animals each. One group of sheep was fed a standard diet, a second group was fed a lignan-enriched diet containing 10% whole flaxseed (Nutricor SL, Leon, Spain) for 2 weeks, and a third group was fed a lignan-enriched diet containing 15% whole flaxseed (Nutricor SL) also for 2 weeks (diet composition is shown in Table 1). Flaxseed amounts and duration of treatment were chosen based on previous studies on cows. Whole flaxseed composition included 20.2% of crude protein, 13.1% of crude fiber and 28.5% of ether extract. All sheep were fed ad libitum twice per day after each milking (09.00 and 18.00 h). Feed intake was not affected by the different experimental diets. […] [29]. The dry residue was dissolved in methanol and filtered (0.22 μm) prior to injection into the ultra-performance liquid chromatography quadrupole time-of-flight mass spectrometry (UPLC-QTOF-MS) equipment. Analyses were developed using an Agilent 1290 Infinity LC system coupled to a 6550 Accurate-Mass QTOF (Agilent Technologies, Waldbronn, Germany) and using an electrospray interface (Jet Stream Technology). Analytical conditions were as previously described with some modifications. Briefly, 5 μL of sample was injected onto a reverse phase Poroshell 120 EC-C18 column (3 × 100 mm, 2.7 μm) (Agilent Technologies) operating at 30 °C. […] The electrospray interface parameters were as follows: gas temperature, 280 °C; drying gas flow, 9 L/min; nebulizer pressure, 35 psi; sheath gas temperature, 400 °C; sheath gas flow, 12 L/min. Spectra were acquired in the m/z range from 100 to 1100 in negative mode and fragmentor voltage was 100 V. Data were processed using Mass Hunter Qualitative Analysis software (version B.06.00 Agilent Technologies). A target screening strategy was applied to plasma and milk samples for the qualitative screening of possible enterolignan-related metabolites. A list of target compounds (60 possible metabolites) covering different phase I and phase II metabolites of parent compound and microbial metabolites was sought in all the samples after MS full-acquisition. Screening was based on mass filtering at the exact mass of the studied compound using narrow mass extraction windows (0.01 m/z). Identification was possible from the valuable information given in QTOF-MS acquisition mode which provides possible molecular formulae for the compounds based on accurate mass and isotopic pattern (Table 2). Additionally, a targeted MS/MS experiment offered fragmentation information for greater reliability in the compound identification process. When possible, direct comparison with authentic standards was performed. Quantification of enterolactone and enterodiol was determined by interpolation in the calibration curve obtained from their own available standards. These metabolites were quantified in MS by peak area integration of their extracted ion chromatograms. Calibration curves were linear from the limit of quantification (LOQ) to 500 nmol/L. […] In the case of conjugated metabolites accurate quantification was not possible due to the absence of available standards and so only qualitative results are provided.

The conditions of data set [2]: effect of isoflavones present in soy; cited from earlier work.
Data set [3] in a line: Milk pharmacokinetics (secretion into milk) of danofloxacin after i.m. administration to lactating sheep fed control or flaxseed-enriched diets. The format is in vivo. The conditions noted are these: 1.25 mg/kg i.m.; for Kp / AUC(0-t) / AUC(0-inf) / Cmax / MRT / Tmax: female, Assaf, sheep, 1.25 mg/kg, mean ± SD, n = 6; for Kp: milk and plasma, intramuscular, read-out: AUC 0–24 milk/plasma; for AUC(0-t) / AUC(0-inf) / Cmax / MRT / Tmax: milk, im; for AUC(0-t): read-out: AUC 0–24. As for the experimental part: (§1) Eighteen lactating […] (3-4 months in lactation and weighing 66-105 kg) were used and milked twice daily. The animals were parasite-free, and drinking water was available ad libitum. The experimental design was performed with animals stratified according to milk production and number of days post-partum, and then randomly distributed in the experimental groups. The animals were divided into 3 diet groups of 6 animals each. One group of sheep was fed a standard diet, a second group was fed a lignan-enriched diet containing 10% whole flaxseed (Nutricor SL, Leon, Spain) for 2 weeks, and a third group was fed a lignan-enriched diet containing 15% whole flaxseed (Nutricor SL) also for 2 weeks (diet composition is shown in Table 1). Flaxseed amounts and duration of treatment were chosen based on previous studies on cows. Whole flaxseed composition included 20.2% of crude protein, 13.1% of crude fiber and 28.5% of ether extract. All sheep were fed ad libitum twice per day after each milking (09.00 and 18.00 h). Feed intake was not affected by the different experimental diets. After 2 weeks on the experimental diets, animals in all groups received a single therapeutic dose (1.25 mg/kg, i.m.) of danofloxacin (Advocin 2.5%, Pfizer, Cedex, France). Blood samples (5 mL) were collected from the jugular vein in commercial blood collection tubes (Vacutainer, 10 mL; […] The pharmacokinetic schedule was based on previous studies from our group. […] A complete evacuation of the udder was carried out at each sampling to avoid any dilution effect. Samples were stored at - 20 °C until analysis. Conditions for HPLC analysis of danofloxacin concentrations in plasma and milk were modified according to previously published methods. […] To each 100 μL aliquot of sample, 600 μL of chloroform was added. […] The residue was reconstituted in 100 μL of methanol and injected into the HPLC system. The system consisted of a Waters 600 pump, a Waters 717 plus autosampler, and a Waters 486 fluorescence detector (Waters Corporation, Milford, MA). […] The mobile phase consisted of 25 mM orthophosphoric acid supplemented with 0.1% triethylamine (pH 3.0): acetonitrile (80:20 v/v) at a flow rate of 1.6 mL/min. Sample detection was performed by fluorescence detection at 338 nm (excitation) and 425 nm (emission). Integration was carried out using MILLENNIUM 32 software (Waters). […] Correlation coefficients (r) for danofloxacin ranged between 0.998 and 0.984 for the calibration curves in plasma and milk curves respectively. LOQ were 1.9 ng/mL for sheep plasma and 19 ng/mL for sheep milk. Peak concentration (Cmax) and time-peak concentrations (Tmax) were read from the plotted concentration-time curve for each animal. The area under the plasma concentration-time curves (AUC) was calculated using the linear trapezoidal rule. Mean residence time (MRT) was calculated by the linear trapezoidal rule with extrapolation to time infinity, using the formula: MRT = AUMC/AUC, where AUMC is the mean area under the first moment curve. These calculations were made with a computer program (PK solution 2.0, Summit Research Services, Ashland, OH) and determined by non-compartmental analyses.

Data set [4] in a line: Plasma pharmacokinetics of danofloxacin after i.m. administration to lactating sheep fed control or flaxseed-enriched diets. The format is in vivo. The conditions noted are these: female, Assaf, im, 1.25 mg/kg, 1.25 mg/kg i.m., mean ± SD; for AUC(0-inf) / Cmax / MRT / Tmax: n = 6; for AUC(0-t): n = 6, read-out: AUC 0–24. As for the experimental part: as §1
Setting [5] is: sheep fed flaxseed-enriched diets vs. control diet.

Take Enterolactone-sulfate: the “Localization (matrix in which the compound was identified)” value (from here on “Localization”) in data set [1] is listed as “Plasma”.
Take `O=S(=O)(O)Oc1cccc(C[C@@H](CO)[C@H](CO)Cc2cccc(O)c2)c1` [Enterodiol- sulfate]: the “Localization” value in data set [1] was “Plasma”.
As to `CN1C[C@@H]2C[C@H]1CN2c1cc2c(cc1F)c(=O)c(C(=O)O)cn2C1CC1` [danofloxacin], the “Reduction of danofloxacin residue in ovine milk” value in data set [2] is given as 50%. In data set [3] (control diet), the Kp was 11 ± 1.95, the AUC(0-t) came to 19200 ± 5030 ng·h/mL, the AUC(0-inf) came to 19400 ± 5120 ng·h/mL and the Cmax was determined as 2950 ± 740 ng/mL. Further, in data set [3] (control diet), the MRT came to 5.35 ± 0.87 h and the Tmax came out at 2.66 ± 0.94 h. Also, in data set [3] (flaxseed 10% diet), the Kp came to 7.81 ± 2.08, the AUC(0-t) is 14600 ± 1790 ng·h/mL, the AUC(0-inf) turned out to be 14900 ± 1860 ng·h/mL and the Cmax stood at 2200 ± 350 ng/mL. Also, in data set [3] (flaxseed 10% diet), the MRT amounted to 5.25 ± 0.35 h and the Tmax is 3 ± 1 h. In data set [3] (flaxseed 15% diet), the Kp was 7.57 ± 2.1, the AUC(0-t) worked out at 13400 ± 3070 ng·h/mL, the AUC(0-inf) is 13700 ± 3130 ng·h/mL and the peak level (Cmax) was 1840 ± 440 ng/mL. Further, in data set [3] (flaxseed 15% diet), the MRT came out at 5.54 ± 0.29 h and the Tmax is 2.66 ± 0.94 h. Moreover, the “Reduction of milk Cmax” value in data set [3] (group fed 15% flaxseed vs. control group) is listed as ~40%. Besides, in data set [3] (sheep fed flaxseed diet vs. control), the “Reduction of secretion into milk / milk residue” value is 25–30%. In data set [3] (setting [5]), the “Reduction of AUC0–24 milk-to-plasma ratio” value is on record as 25–30%, the “Reduction of milk AUC0–24” value is recorded as 25–30% and the “Reduction of milk Cmax” value is 25–30%. Further, in data set [4] (control diet), the AUC(0-inf) came to 1750 ± 380 ng·h/mL, the highest level (Cmax) was 310 ± 50 ng/mL, the MRT is 4.22 ± 0.73 h and the Tmax is 1.5 ± 0.5 h. Also, the AUC(0-t) in data set [4] (control diet) was determined as 1740 ± 370 ng·h/mL. Besides, in data set [4] (flaxseed 10% diet), the AUC(0-inf) was 1930 ± 250 ng·h/mL, the Cmax stood at 310 ± 60 ng/mL, the MRT stood at 4.77 ± 0.49 h and the Tmax was 1.5 ± 0.5 h. For the same compound, the AUC(0-t) in data set [4] (flaxseed 10% diet) came out at 1920 ± 260 ng·h/mL. Further, in data set [4] (flaxseed 15% diet), the AUC(0-inf) was 1810 ± 150 ng·h/mL, the peak concentration (Cmax) was 300 ± 40 ng/mL, the MRT is 4.95 ± 0.39 h and the Tmax is 1.16 ± 0.37 h. The AUC(0-t) in data set [4] (flaxseed 15% diet) is 1790 ± 150 ng·h/mL.
Regarding `O=C1OC[C@H](Cc2cccc(O)c2)[C@H]1Cc1cccc(O)c1` [Enterolactone], the “Localization” value in data set [1] was “Plasma, milk”.
`O=C(O)[C@H]1O[C@@H](Oc2cccc(C[C@@H](CO)[C@H](CO)Cc3cccc(O)c3)c2)[C@H](O)[C@@H](O)[C@@H]1O` [Enterodiol- glucuronide]: the “Localization” value in data set [1] was “Plasma”.
Take Enterolactone-glucuronide: the “Localization” value in data set [1] was “Plasma”.
As for `OC[C@H](Cc1cccc(O)c1)[C@H](CO)Cc1cccc(O)c1` [Enterodiol], the “Localization” value in data set [1] was “Plasma, milk”.

Broadly, the AUC(0-inf) is the area under the concentration-time curve extrapolated to infinity. The term Cmax denotes the highest concentration seen after dosing. What is called MRT is a mean duration of stay, worked out from the concentration-time curve. One may read the Tmax as the time from dosing to the highest level.
